Test results: patent publication US7423114B2, “GD2 ligands” (McGill University, priority 2002, dated 2008)
Entries after “also recorded” stand apart in the source; their conditions may differ.

Columns and labels:
EL4 GD2^positive cells = assay: Intracellular calcium by flow cytometry (Rhod-2 AM); type: cell-based, mouse; conditions: PP1 10 μM, EL4 GD2positive cells
Protocol: (c) Effect of GD2 ligands on intracellular calcium concentrations. Resting EL4 GD2positive cells were treated with mAb 3F8 (13 nM), control mouse IgG (mIg) or the calcium ionophore A23187. Intracellular calcium concentration was evaluated over time by flow cytometry using the calcium-sensitive fluorophore Rhod-2 AM. mAb 3F8 can induce strong, sustainable calcium changes withing 5 minutes, while control mouse IgG has no effect. […] Shown are averages of 4 independent assays ± SEM.
Intracellular calcium studies: cells (1×10^6 per sample) were washed with Ringer's solution (155 mM NaCl, 4.5 mM KCl, 2 mM CaCl2, 1 mM MgCl2, 10 mM D-glucose, 5 mM HEPES) and resuspended in 1 ml Ringer's containing 10 μM p56^Lck inhibitor PP1 (BioMol) or vehicle for 15 minutes at 37° C. Then 5 μM Rhod-2AM (Molecular Probes) was then added to the cells and incubated for 30 minutes at room temprature with mild agitation. Cells were washed once in Ringer's, resuspended in 1 ml Ringer's and incubated for 30 minutes, after which cells were stimulated with the indicated ganglioside ligands (or calcium ionophore A23187 as control) and analyzed over a 30 minute period for intracellular Ca^2+ using a flow cytometer (Becton-Dickinson).

mAb 3F8-GD2 interactions = assay: Competitive ELISA: inhibition of mAb 3F8 binding to immobilized GD2 by peptides; set-up: key to Activity in SAR and deletion analysis (inactive mark): peptides marked by * are inactive; conditions: for % Inhibition of mAb 3F8-GD2 interactions: peptides 50 μg/well, 1 hour before mAb 3F8, immobilized GD2, no peptide = 0%, no mAb 3F8 = 100%, mean ± SEM of 5 experiments; for Activity in SAR and deletion analysis (inactive mark): Table 1 domains/peptides
Protocol: Detection of GD2 or GM1 by ELISA: 12.5 ng/well of ganglioside (GD2, Advanced Immunochemicals or GM1) were immobilized by drying onto PVC 96-well plates (Falcon), followed by blocking with PBS-0.5% BSA for one hour. Then, anti-GD2 mAb 3F8 or biotin-CTB were added for 10 minutes. The plate was washed three times with PBS-0.5% BSA and incubated 60 minutes with horseradish peroxidase (HRP)-conjugated anti-mouse antibody or HRP-conjugated-avidin. After three washes with PBS-0.5% BSA and two with PBS, the colorimetric substrate ABTS was added and the plate read at 414 nm on a Biorad 550 plate reader. Assessment of peptide-GD2 interaction by competitive ELISA: ELISAs were as described above, except that peptides (50 μg/well, in PBS) were added to the wells for 1 hour before anti-GD2 mAb 3F8 or anti-GM1 cholera toxin-B. Selectivity of inhibition is controlled by lack of effect upon GM1-CTB interactions. […] No competitor peptide added or control irrelevant peptide added were standardized as 100% binding. […] Inhibition of mAb 3F8 bindng to immobilized GD2 by peptides, measured by competitive ELISA. No peptide or control peptide treatments are standardized as 0% inhibition. No mAb 3F8 treatment is standardized as 100% inhibition. Average of 5 […] experiments, n=4 in each experiment. Mean±SEM.

human recombinant CD45 = target: T1, human recombinant CD45 (Homo sapiens, UniProt P08575); assay: In vitro CD45 phosphatase assay; type: biochemical; conditions: gangliosides 16.7 μM, pp60Src phosphoregulatory peptide substrate
T1 construct: purchased BioMol
T1 sequence (P08575 26-1306): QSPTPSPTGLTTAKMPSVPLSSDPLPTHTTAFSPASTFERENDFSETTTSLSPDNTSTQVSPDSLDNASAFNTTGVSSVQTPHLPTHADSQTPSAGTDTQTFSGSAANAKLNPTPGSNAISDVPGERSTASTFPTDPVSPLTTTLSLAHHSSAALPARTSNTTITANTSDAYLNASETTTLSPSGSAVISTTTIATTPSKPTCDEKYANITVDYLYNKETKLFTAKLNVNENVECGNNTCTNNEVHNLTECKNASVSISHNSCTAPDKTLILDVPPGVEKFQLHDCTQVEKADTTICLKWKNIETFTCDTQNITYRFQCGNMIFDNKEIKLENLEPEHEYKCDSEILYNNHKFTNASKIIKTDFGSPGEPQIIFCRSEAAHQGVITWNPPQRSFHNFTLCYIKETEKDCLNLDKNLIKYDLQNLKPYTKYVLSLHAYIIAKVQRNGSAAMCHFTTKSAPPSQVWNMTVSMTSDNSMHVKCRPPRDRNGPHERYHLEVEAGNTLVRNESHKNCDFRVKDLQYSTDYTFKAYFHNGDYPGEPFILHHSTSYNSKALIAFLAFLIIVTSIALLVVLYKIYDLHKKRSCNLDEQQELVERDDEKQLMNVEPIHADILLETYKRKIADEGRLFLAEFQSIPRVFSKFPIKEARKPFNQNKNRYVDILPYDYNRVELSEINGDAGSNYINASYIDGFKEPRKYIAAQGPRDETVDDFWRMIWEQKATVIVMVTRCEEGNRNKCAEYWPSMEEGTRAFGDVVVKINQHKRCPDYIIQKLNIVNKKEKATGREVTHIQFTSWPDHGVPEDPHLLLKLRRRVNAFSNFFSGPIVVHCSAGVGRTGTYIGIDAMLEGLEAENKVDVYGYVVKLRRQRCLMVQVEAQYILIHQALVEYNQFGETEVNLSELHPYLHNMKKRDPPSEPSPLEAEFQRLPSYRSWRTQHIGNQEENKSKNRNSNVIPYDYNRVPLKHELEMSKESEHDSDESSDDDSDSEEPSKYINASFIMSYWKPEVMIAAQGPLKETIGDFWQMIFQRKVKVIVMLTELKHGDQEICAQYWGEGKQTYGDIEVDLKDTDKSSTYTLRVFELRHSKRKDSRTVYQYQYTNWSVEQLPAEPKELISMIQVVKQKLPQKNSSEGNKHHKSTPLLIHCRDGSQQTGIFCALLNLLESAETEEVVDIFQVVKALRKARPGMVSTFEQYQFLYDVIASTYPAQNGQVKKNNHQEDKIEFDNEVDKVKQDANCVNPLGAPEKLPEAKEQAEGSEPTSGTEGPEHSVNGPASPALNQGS
Protocol: In vitro CD45 phosphatase assay: human recombinant CD45 enzyme (BioMol, 75 units/well) was preincubated in the absence (negative control) or presence of sodium orthovanadate (positive control) or various gangliosides (16.7 μM) for 20 minutes at room temperature in half-volume 96-well microtiter plates. A CD45-specific substrate (pp60^Src C-terminal phosphoregulatory peptide, 200 μM) was then added for 20 minutes at 30° C., afterwhich the reaction was stopped and quantified with BioMol Green reagent. Plates were read at 620 nm with a Biorad 550 platew reader.

[1] = target: T2, purified p56^Lck tyrosine kinase (Homo sapiens, UniProt P06239); assay: Effect of exogenous gangliosides on in vitro kinase activity of purified p56Lck; type: biochemical; conditions: control assays
T2 construct: purchased Upstate Biotechnology
Protocol: The kinase activity of p56^Lck was evaluated by measuring the incorporation of ^32PO4 in a peptidic p56^Lck substrate over time, with or without GD2 or GM1. Presence of GD2, but not GM1, can positively alter the kinetics of p56^Lck kinase activity. Activity standardized to untreated p56^Lck at the 20 minute time point. Shown are averages of 3 to 5 assays±SEM.
Effect of exogenous GD2 on p56^Lck in vitro kinase assay: chromatographically purified p56^Lck tyrosine kinase (Upstate Biotechnology) was incubated on ice for 10 minutes in kinase buffer (100 mM Tris-HCl, pH 7.2, 125 mM MgCl2, 25 mM MnCl2, 2 mM EGTA, 150 μM ATP, 0.25 mM sodium orthovanadate, 2 mM DTT) with or without ˜20 fold molar excess of ganglioside and 10 μCi [γ-^32P]ATP. Then 10 μg of the Src kinase substrate peptide p34^cdc2(6-20) (Upstate Biothechnology) was added to the mix and incubated at room temperature for the times indicated, after which the reaction was stopped by addition of 100 μM iodoacetamide and by precipitation of proteins with final 10% TCA. The supematant (containing the phosphorylated peptide substrate, not precipitated by TCA) was spotted on a P81 paper (Whatman) and washed three times with 0.75% phosphoric acid and once with acetone. The [^32P]-peptide content was quantified using a Storm 840 phosphorimager with ImageQuant software.

T2 sequence (P06239 whole entry): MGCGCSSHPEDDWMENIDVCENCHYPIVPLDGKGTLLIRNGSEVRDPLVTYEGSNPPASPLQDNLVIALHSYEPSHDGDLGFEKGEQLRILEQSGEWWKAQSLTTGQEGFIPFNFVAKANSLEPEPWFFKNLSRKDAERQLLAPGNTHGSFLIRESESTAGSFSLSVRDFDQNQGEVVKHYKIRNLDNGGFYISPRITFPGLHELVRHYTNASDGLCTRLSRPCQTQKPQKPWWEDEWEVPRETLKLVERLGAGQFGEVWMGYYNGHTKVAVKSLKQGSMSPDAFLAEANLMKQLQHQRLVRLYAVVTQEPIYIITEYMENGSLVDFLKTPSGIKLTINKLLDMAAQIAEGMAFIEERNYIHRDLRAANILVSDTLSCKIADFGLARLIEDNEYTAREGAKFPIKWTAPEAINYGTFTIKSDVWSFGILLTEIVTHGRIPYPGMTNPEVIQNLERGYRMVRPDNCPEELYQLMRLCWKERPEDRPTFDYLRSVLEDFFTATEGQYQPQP

| Compound | % Inhibition of mAb 3F8-GD2 interactions (mAb 3F8-GD2 interactions) [%] | other results |
| --- | --- | --- |
| Cc1ccc(-c2nn(C(C)(C)C)c3ncnc(N)c23)cc1 [PP1] | – | Effect of p56Lck inhibitor on mAb 3F8-induction of Ca++ fluxes (EL4 GD2^positive cells): markedly decreased; also recorded: partially abolished |
| C G G I T N Y N C (CGGITNYNC) [Pep 54] | 40.34 ± 3.17 | – |
| C T N Y G V H C (CTNYGVHC) [Pep 55] | 12.23 ± 4.41 | – |
| G G I T N Y N S A L M (GGITNYNSALM) [Pep 51] | 44.96 ± 1.57 | Inhibition of GD2-mAb 3F8 interactions in ELISA, in words (mAb 3F8-GD2 interactions): can also act as a competitive inhibitor |
| GD1a | – | Inhibition of CD45 phosphatase activity (human recombinant CD45): 50% |
| YCTNYGVCY [core matches Pep 56 with added terminal Y residues] | – | Activity in SAR and deletion analysis (inactive mark) (mAb 3F8-GD2 interactions): * |
| YCTNYGVHCY [core matches Pep 55 with added terminal Y residues] | – | Activity in SAR and deletion analysis (inactive mark) (mAb 3F8-GD2 interactions): * |
| phosphatidylcholine | – | p56Lck kinase activity upon addition of exogenous lipid, in words [1]: not altered |

Now from value to compound, other results behind:

| % Inhibition of mAb 3F8-GD2 interactions (mAb 3F8-GD2 interactions) [%] | Compound | other results |
| --- | --- | --- |
| 30.17 ± 2.69 | C G G I T N Y N S A C (CGGITNYNSAC) [Pep 52] | – |
| 47.60 ± 4.26 | C G GI A N Y N C [Pep 58] | – |
| 48.83 ± 5.01 | C G GI A N Y N T S C [Pep 59] | – |
| 30.94 ± 3.53 | C I A N Y N T C (CIANYNTC) [Pep 60] | – |
| 24.74 ± 3.29 | C I T N Y N S C (CITNYNSC) [Pep 53] | – |
| 14.13 ± 5.43 | C T N Y G V C (CTNYGVC) [Pep 56] | – |
| 4.33 ± 5.23 | G G I A N Y N T S (GGIANYNTS) [Pep 57] | Activity in SAR and deletion analysis (inactive mark) (mAb 3F8-GD2 interactions): * |
